Patent publication US10100039B2, “Allisartan isoproxil polymorph, its preparation method and pharmaceutical” (SHENZHEN SALUBRIS PHARMACEUTICALS CO., LTD, priority 2014, dated 2018)

Key:
Assay type in all cases: physicochemical
[1] = Repose angle by fixed funnel method (flowability)
From the text: Repeated the method of patent CN200710094131.0 to obtain fine loose allisartan isoproxil powder (referred to as literature crystal), measured the response angle by fixed funnel method.

[2] = Bulk density by cylinder knocking method
[3] = Stability study of influence factors (high temperature, high humidity, light); details: for Stability under influence factors (conclusion in words): photostability, high humidity and high temperature study
Experimental: Stability study on the mentioned polymorph in Example 1 was performed in high temperature, high humidity and light conditions to study the influence factors.

[4] = Observation of electrostatic phenomenon of the crystal; details: compared with the crystal disclosed
Experimental: Added 33 ml of isopropanol and 66 ml of n-heptane in the remainder (allisartan isoproxil crude), heated to 76° C. and stirred for 2 h, then cooled to 60° C. and stirred for 1 h. Cooled the system slowly to 0° C., continued to stir for 3 h. Filtered, and washed the filter cake with n-heptane.

[5] = high humidity test 25° C., RH 92.5%, day 0
[6] = high humidity test 25° C., RH 92.5%, day 5
[7] = high humidity test 25° C., RH 92.5%, day 10
[8] = high temperature test 60° C., day 0
[9] = high temperature test 60° C., day 5
[10] = high temperature test 60° C., day 10
[11] = photostability test 4500lx ± 500lx, day 0
[12] = photostability test 4500lx ± 500lx, day 5
[13] = photostability test 4500lx ± 500lx, day 10

Q: What does the source list for `CCCCc1nc(Cl)c(C(=O)OCOC(=O)OC(C)C)n1Cc1ccc(-c2ccccc2-c2nnn[nH]2)cc1` [Example 1, 2-butyl-4-chloro-1-[2′-(1H-tetrazol-5-yl)-1, 1′-biphenyl-methyl]-imidazole-5-carboxylic acid, 1-[(isopropoxy)-carbonyloxy]methyl ester]?
A: Repose angle [1]: 34-36 °; Bulk density [2]: 0.75 g/mL; Sum of impurities [3, 5]: 0.39%; Weight gained [3, 5]: 0%; Sum of impurities [3, 6]: 0.37%; Weight gained [3, 6]: 0%; Sum of impurities [3, 7]: 0.38%; Weight gained [3, 7]: 0%; Sum of impurities [3, 8]: 0.39%; Weight gained [3, 8]: 0%; Sum of impurities [3, 9]: 0.39%; Weight gained [3, 9]: 0%; Sum of impurities [3, 10]: 0.39%; Weight gained [3, 10]: 0%; Sum of impurities [3, 11]: 0.39%; Weight gained [3, 11]: 0%; Sum of impurities [3, 12]: 0.37%; Weight gained [3, 12]: 0%; Sum of impurities [3, 13]: 0.38%; Weight gained [3, 13]: 0%; Stability under influence factors (conclusion in words) [3]: remained stable; Electrostatic phenomenon [4]: does not have obvious electrostatic phenomenon

Q: For `CCCCc1nc(Cl)c(C(=O)OCOC(=O)OC(C)C)n1Cc1ccc(-c2ccccc2-c2nnn[nH]2)cc1` [Example 2, 2-butyl-4-chloro-1-[2′-(1H-tetrazol-5-yl)-1, 1′-biphenyl-methyl]-imidazole-5-carboxylic acid, 1-[(isopropoxy)-carbonyloxy]methyl ester], which Repose angle [1] is on record?
A: 35-37 °

Q: And the Bulk density [2]?
A: 0.73 g/mL

Q: And the “Stability under influence factors (conclusion in words)” value [3]?
A: same result with that of Example 1

Q: Which results are given for `CCCCc1nc(Cl)c(C(=O)OCOC(=O)OC(C)C)n1Cc1ccc(-c2ccccc2-c2nnn[nH]2)cc1` [Example 3, 2-butyl-4-chloro-1-[2′-(1H-tetrazol-5-yl)-1, 1′-biphenyl-methyl]-imidazole-5-carboxylic acid, 1-[(isopropoxy)-carbonyloxy]methyl ester]?
A: Repose angle [1]: 33-35 °; Bulk density [2]: 0.77 g/mL; Stability under influence factors (conclusion in words) [3]: same result with that of Example 1

Q: For `CCCCc1nc(Cl)c(C(=O)OCOC(=O)OC(C)C)n1Cc1ccc(-c2ccccc2-c2nnn[nH]2)cc1` [Example 4, 2-butyl-4-chloro-1-[2′-(1H-tetrazol-5-yl)-1, 1′-biphenyl-methyl]-imidazole-5-carboxylic acid, 1-[(isopropoxy)-carbonyloxy]methyl ester], which Repose angle [1] is on record?
A: 35-38 °

Q: And the Bulk density [2]?
A: 0.77 g/mL

Q: What about the “Stability under influence factors (conclusion in words)” value [3] of the same compound?
A: same result with that of Example 1

Q: What does the source list for `CCCCc1nc(Cl)c(C(=O)OCOC(=O)OC(C)C)n1Cc1ccc(-c2ccccc2-c2nnn[nH]2)cc1` [Literature crystal, 2-butyl-4-chloro-1-[2′-(1H-tetrazol-5-yl)-1, 1′-biphenyl-methyl]-imidazole-5-carboxylic acid, 1-[(isopropoxy)-carbonyloxy]methyl ester, reference compound]?
A: Repose angle [1]: 48-53 °; Bulk density [2]: 0.51 g/mL
